Read-outs that look alike come from different tables or passages of the source. Values belong to the molecule of their own block, whether it stands above or below them.
Assays:
[1] = Bioavailability in dogs by oral route (plasma rifaximin by LC-MS/MS); assay type: in vivo, Beagle female dogs
Procedure: Twelve 20 week pure-bred Beagle females dogs, and weighing between 5.0 and 7.5 kg, have been divided into three groups of four.
Each sample was transferred into an heparinized tube and was centrifuged; the plasma was divided into 50μl two aliquots and frozen at −20° C.
Tmax=time at which the Cmax is reached;
AUC=area under the concentration-time curve calculated through the linear trapezoidal rule.

[2] = Hygroscopicity and humidity-dependent transition between polymorphic forms; assay type: physicochemical; conditions: for hygroscopicity: reversibly absorb water under suitable conditions of pressure and humidity
From the text: Both the form γ and the forms α and β of rifaximin are hygroscopic, they reversibly absorb water in time in the presence of suitable environmental conditions of pressure and humidity and are susceptible of transformation from one form into another.

[3] = Intrinsic dissolution test (USP 27 monograph 1087); assay type: physicochemical
From the text: The die-holder containing the compacted pellet has then been mounted on a laboratory stirring device, immersed in a dissolution medium and rotated by means of the stirring device.
A compacted pellet was formed in the die with a single face of defined area exposed on the bottom of the die so that from 50% to 75% of the compacted pellet could dissolve in an appropriate dissolution medium.
The holder containing the die was mounted on a laboratory stirring device, immersed in a glass vessel containing a dissolution medium and rotated at a rotation speed of 100 rpm by means of the stirring device, while keeping the temperature of the dissolution medium at 37±0.5° C. […]

[4] = single oral administration of 100 mg/kg by capsules to female dogs, plasma, listed as Polimorph α, 100 mg/kg
[5] = single oral administration of 100 mg/kg by capsules to female dogs, plasma, listed as Polimorph β, 100 mg/kg
[6] = single oral administration of 100 mg/kg by capsules to female dogs, plasma, listed as Polimorph γ, 100 mg/kg

- Cmax ([1]; Beagle, dog, plasma, oral, 100 mg/kg, pharmaceutical composition comprising the polymorphic form, conditions not stated, read-out: Cmax (summary embodiment)): ~2 ng/mL
- Tmax ([1]; female, Beagle, dog, plasma, po, 100 mg/kg, single oral administration of 100 mg/kg by capsules to female dogs): 9.5 h
- AUC0-24 h (summary embodiment) ([1]; pharmaceutical composition comprising the polymorphic form, conditions not stated, listed as rifaximin in polymorphic form α): about 13 ng·h/ml
- AUC0-24 Mean [1, 4]: 13 ng·h/mL
- Cmax Mean [1, 4]: 2.632 ng/mL
- solid form transition under humidity ([2]; relative humidity higher than 50% for 12 to 48 hours): changes into the polymorphic form β
- hygroscopicity [2]: hygroscopic
- disintegration of the compacted pellet (time) ([3]; phosphate buffer pH 7.4, 37°C, with sodium lauryl sulfate, also at 0.1% and 0.3% and without surfactant): ≤ 10 min
Compound: CO[C@H]1/C=C/O[C@@]2(C)Oc3c(C)c(O)c4c(O)c(c5c(nc6cc(C)ccn65)c4c3C2=O)NC(=O)/C(C)=C\C=C\[C@H](C)[C@H](O)[C@@H](C)[C@@H](O)[C@@H](C)[C@H](OC(C)=O)[C@@H]1C [rifaximin α, rifaximin]

- AUC0-24 h (summary embodiment) ([1]; pharmaceutical composition comprising the polymorphic form, conditions not stated, listed as rifaximin in polymorphic form β): about 11 ng·h/ml
- AUC0-24 Mean [1, 5]: 11 ng·h/mL
- tmax Mean [1, 5]: 4 h
- hygroscopicity [2]: hygroscopic
- Intrinsic dissolution rate ([3]; 0.1M aqueous phosphate buffer pH 7.4 with 0.45% sodium lauryl sulfate, 37°C, listed as β polymorph): 0.0147 mg/min/cm^2
- Rifaximin dissolved ([3]; 15 min, 0.1M aqueous phosphate buffer pH 7.4 with 0.45% sodium lauryl sulfate, 37°C, listed as β polymorph): 0.28 mg/cm^2
- Rifaximin dissolved ([3]; 30 min, 0.1M aqueous phosphate buffer pH 7.4 with 0.45% sodium lauryl sulfate, 37°C, listed as β polymorph): 0.50 mg/cm^2
- Rifaximin dissolved ([3]; 45 min, 0.1M aqueous phosphate buffer pH 7.4 with 0.45% sodium lauryl sulfate, 37°C, listed as β polymorph): 0.71 mg/cm^2
- Rifaximin dissolved ([3]; 60 min, 0.1M aqueous phosphate buffer pH 7.4 with 0.45% sodium lauryl sulfate, 37°C, listed as β polymorph): 0.94 mg/cm^2
- intrinsic dissolution rate (summary embodiment) ([3]; pharmaceutical composition comprising the polymorphic form, conditions not stated): about 0.01 mg/min/cm^2
Compound: CO[C@H]1/C=C/O[C@@]2(C)Oc3c(C)c(O)c4c(O)c(c5c(nc6cc(C)ccn65)c4c3C2=O)NC(=O)/C(C)=C\C=C\[C@H](C)[C@H](O)[C@@H](C)[C@@H](O)[C@@H](C)[C@H](OC(C)=O)[C@@H]1C [rifaximin β, rifaximin]

- Cmax ([1]; female, Beagle, dog, plasma, po, 100 mg/kg, oral 100 mg/kg, Beagle female dogs, read-out: Cmax): 668 ng/mL
- absorption in respect of rifaximin α and rifaximin β ([1]; oral 100 mg/kg, Beagle female dogs): more than 102 times
- AUC0-24 h (summary embodiment) ([1]; pharmaceutical composition comprising the polymorphic form, conditions not stated, listed as rifaximin in polymorphic form γ): about 4000 ng·h/ml
- AUC0-24 Mean [1, 6]: 3908 ng·h/mL
- Cmax Mean [1, 6]: 668.22 ng/mL
- hygroscopicity [2]: hygroscopic
Compound: CO[C@H]1/C=C/O[C@@]2(C)Oc3c(C)c(O)c4c(O)c(c5c(nc6cc(C)ccn65)c4c3C2=O)NC(=O)/C(C)=C\C=C\[C@H](C)[C@H](O)[C@@H](C)[C@@H](O)[C@@H](C)[C@H](OC(C)=O)[C@@H]1C [rifaximin γ, rifaximin]
